Experimental data: the supplement of paper PMC11451515

System: P12-Ichikawa
Assay: cell viability relative to DMSO control; higher = less cytotoxic
Settings: 48 h
Summary of the method: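 Leukemia cells (NOMO1 or SEM, 500 cells/well; P12-Ichikawa, 1000 cells/well) were seeded in 5 μl in 1536-well plates after at least four passages of adaptation to each medium. They received library compounds in DMSO by pin dosing, 11 threefold points from 47 μM to 0.79 nM. Luminescence with CellTiter-Glo One was read after 48 h at 37°C. Viability is stated per plate relative to DMSO wells, with cell-free wells as background.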

[1] = HPLM + 10% dialyzed FBS, 0.000781 µM
[2] = HPLM + 10% dialyzed FBS, 0.00234 µM
[3] = HPLM + 10% dialyzed FBS, 0.00702 µM
[4] = HPLM + 10% dialyzed FBS, 0.0211 µM
[5] = HPLM + 10% dialyzed FBS, 0.0632 µM
[6] = HPLM + 10% dialyzed FBS, 0.19 µM
[7] = HPLM + 10% dialyzed FBS, 0.569 µM
[8] = HPLM + 10% dialyzed FBS, 1.71 µM
[9] = HPLM + 10% dialyzed FBS, 5.12 µM
[10] = HPLM + 10% dialyzed FBS, 15.4 µM
[11] = HPLM + 10% dialyzed FBS, 46.1 µM
[12] = RPMI 5 mM glucose + 10% FBS, 0.000781 µM
[13] = RPMI 5 mM glucose + 10% FBS, 0.00234 µM
[14] = RPMI 5 mM glucose + 10% FBS, 0.00702 µM
[15] = RPMI 5 mM glucose + 10% FBS, 0.0211 µM
[16] = RPMI 5 mM glucose + 10% FBS, 0.0632 µM
[17] = RPMI 5 mM glucose + 10% FBS, 0.19 µM
[18] = RPMI 5 mM glucose + 10% FBS, 0.569 µM
[19] = RPMI 5 mM glucose + 10% FBS, 1.71 µM
[20] = RPMI 5 mM glucose + 10% FBS, 5.12 µM
[21] = RPMI 5 mM glucose + 10% FBS, 15.4 µM
[22] = RPMI 5 mM glucose + 10% FBS, 46.1 µM
[23] = RPMI 5 mM glucose + 10% dialyzed FBS, 0.000781 µM
[24] = RPMI 5 mM glucose + 10% dialyzed FBS, 0.00234 µM
[25] = RPMI 5 mM glucose + 10% dialyzed FBS, 0.00702 µM
[26] = RPMI 5 mM glucose + 10% dialyzed FBS, 0.0211 µM
[27] = RPMI 5 mM glucose + 10% dialyzed FBS, 0.0632 µM
[28] = RPMI 5 mM glucose + 10% dialyzed FBS, 0.19 µM
[29] = RPMI 5 mM glucose + 10% dialyzed FBS, 0.569 µM
[30] = RPMI 5 mM glucose + 10% dialyzed FBS, 1.71 µM
[31] = RPMI 5 mM glucose + 10% dialyzed FBS, 5.12 µM
[32] = RPMI 5 mM glucose + 10% dialyzed FBS, 15.4 µM
[33] = RPMI 5 mM glucose + 10% dialyzed FBS, 46.1 µM

Compound	cell viability [1] [%]	cell viability [2] [%]	cell viability [3] [%]	cell viability [4] [%]	cell viability [5] [%]	cell viability [6] [%]	cell viability [7] [%]	cell viability [8] [%]	cell viability [9] [%]	cell viability [10] [%]	cell viability [11] [%]	cell viability [12] [%]	cell viability [13] [%]	cell viability [14] [%]	cell viability [15] [%]	cell viability [16] [%]	cell viability [17] [%]	cell viability [18] [%]	cell viability [19] [%]	cell viability [20] [%]	cell viability [21] [%]	cell viability [22] [%]	cell viability [23] [%]	cell viability [24] [%]	cell viability [25] [%]	cell viability [26] [%]	cell viability [27] [%]	cell viability [28] [%]	cell viability [29] [%]	cell viability [30] [%]	cell viability [31] [%]	cell viability [32] [%]	cell viability [33] [%]
C[S+](=O)([O-])c1ccc(-c2cnc(N)c(C(=O)Nc3ccccc3)n2)cc1	99.6	104	107	107	117	119	118	118	114	88.4	87.2	103	119	111	112	123	122	116	121	114	76.9	80.5	104	117	120	120	121	115	124	114	117	72.6	69.7
NC(=O)c1cccc2cn(-c3ccc([C@@H]4CCCNC4)cc3)nc12	90.3	94.4	103	104	110	105	108	106	101	86.9	33.8	83.9	90.4	96.8	100	103	105	101	102	103	75.5	24.5	94.1	98.6	103	105	108	113	103	106	101	88.4	55.5
CCCCCCCCCC(=O)N[C@@H](Cc1c[nH]c2ccccc12)C(=O)N[C@H](CC(N)=O)C(=O)N[C@@H](CC(=O)O)C(=O)N[C@@H]1C(=O)NCC(=O)N[C@@H](CCCN)C(=O)N[C@@H](CC(=O)O)C(=O)N[C@H](C)C(=O)N[C@@H](CC(=O)O)C(=O)NCC(=O)N[C@H](CO)C(=O)N[C@@H]([C@@H](C)CC(=O)O)C(=O)N[C@@H](CC(=O)c2ccccc2N)C(=O)O[C@@H]1C	116	122	112	123	121	122	126	123	122	124	129	106	111	113	121	131	127	126	129	125	125	4.51	106	111	110	113	133	116	117	126	121	131	115
O=C(O)/C=C/c1ccc(O)c(O)c1	118	113	105	112	110	103	107	99.2	105	88.3	18.3	106	111	111	112	108	106	113	117	105	93.4	6.72	100	120	105	116	117	110	115	103	99.7	88.7	7.01
CC1(C)CNc2cc(NC(=O)c3cccnc3NCc3ccncc3)ccc21	120	115	125	121	128	116	117	118	112	110	101	127	117	122	116	115	106	119	117	111	105	107	121	124	128	121	120	120	123	112	113	113	96.1
CNCc1ccc(-c2[nH]c3cc(F)cc4c3c2CCNC4=O)cc1	109	124	121	121	124	126	130	119	122	123	119																						
ClC1=CC\2=C(NC(=O)\C(=C2N[C@@H]3CN4CCC3CC4)C5=NC6=C([NH]5)C=CC=C6)C=C1	110	117	112	113	112	104	56.8	11.9	8.98	10.4	18.9	102	120	113	120	122	55.9	19.6	13.1	11	9.4	14.9	116	122	119	112	116	95.8	45.1	14	12.5	12.4	16.4
CC(C)c1cc(C(=O)N2Cc3ccc(CN4CCN(C)CC4)cc3C2)c(O)cc1O	118	121	123	106	124	109	89.3	65.8	54.7	52.8	51.4	115	119	115	105	114	97.7	56.4	52.5	41.3	40.7	39.8	119	122	125	112	125	112	65.3	50	43.3	44.5	43.3
CN1\C(=C(\O)C2=C(C=CC=C2)[S+]1([O-])=O)C(=O)NC3=CC=CC=N3	96.6	104	109	119	107	110	70.9	101	73.1	30.5	12.2	104	111	114	105	108	109	82.4	105	70.2	42	10.4	96.9	97.7	99.5	112	105	106	85.7	106	81.9	60.1	12.4
COC1=CC=C(C=C1O)C/2=C/C(=O)C3=C(O2)C=C(O)C=C3O	96.2	95.5	96.4	97	95.2	90.3	86.4	90.8	86.7	91.9	88.4	98	92.1	95.3	98.9	104	92.5	90.4	87.5	87.3	91.3	89.9	86.8	83.9	81.7	76.9	78.1	76.5	77.9	79.5	79.5	80.7	80.7
COc1cc2c(Nc3ccc(Br)cc3F)ncnc2cc1OCC1CCN(C)CC1	87.8	93.5	91.3	91.1	91.9	88.4	87.8	82.8	89.9	73.9	86.9	82	81.8	79	87.7	87.3	81.7	85.2	84.8	80.6	80.9	83	88.7	86.1	84.6	83.3	88.3	88.8	84.5	84.4	76.9	68	79.8
CC(C)C[C@H](NC(=O)CNC(=O)c1cc(Cl)ccc1Cl)B(O)O	91	98.3	99.7	14.2	106	78	6.35	5.51	4.53	3	2.23	78.7	89	85.8	11.8	102	73.1	6.15	5.14	4.49	3.12	1.86	88.7	88.6	91.2	21.6	100	88	6.52	5.26	4.56	2.86	1.63
COc1cc2nc(-c3cc(F)ccc3O)nc(N[C@@H]3CNC[C@H]3C(C)(C)O)c2cc1OC	104	104	106	110	110	109	114	120	80.5	76.6	56.5	108	104	111	111	118	128	119	129	83.5	67.8	44.3	116	123	117	113	121	116	124	115	69.6	48.5	37.5
C[C@H]1[C@@H](C(=O)C[C@H]2O[C@@H]3O[C@]4(C)CC[C@H]5[C@H](C)CC[C@@H]([C@H]2C)[C@@]35OO4)O[C@@H]2O[C@]3(C)CC[C@H]4[C@H](C)CC[C@@H]1[C@@]24OO3	117	113	116	124	115	119	113	110	90.1	86.3	14.4	117	130	121	121	120	119	102	104	102	82.7	9.74	120	111	112	113	110	101	98.8	102	93.6	56.1	15.4
COC/1=C/C=C2\C(=C/C1=O)[C@H](CCC3=CC(=C(OC)C(=C23)OC)OC)NC(C)=O	45.1	26.4	14.5	12.8	10.9	9.53	6.89	4.02	3.71	3.18	1.19	32.3	19.7	15.6	10.3	9.46	7.35	5.7	4.23	4.86	3.24	2.12	41.3	34.3	21.5	16	13.2	8.83	8.91	4.52	4.83	3.55	1.22
